Data reported in publication PMC8851282, “Senolysis induced by 25-hydroxycholesterol targets CRYAB in multiple cell types” (iScience, 2022).

What was measured:
[1] = system: CRYAB; parameters: method as in Makley et al., 2015; details: ref Makley et al., 2015; cited from earlier work
[2] = system: SARS-CoV-2; parameters: method as in Wang et al., 2020; Zang et al., 2020; Zu et al., 2020; details: by depleting membrane cholesterol, ref Wang et al., 2020, Zang et al., Zu et al.; cited from earlier work
[3] = system: Cdkn1a and Cryab mRNA in gastrocnemius and soleus muscles; test: qRT-PCR of senescence markers and Cryab in muscles of Doxo-treated mice given 25HC; assay type: in vivo, mouse; details: Doxo-treated male mice, 25HC 50 mg/kg i.p. for 7 consecutive days
Protocol: (§1) Figure 8 25HC induces senolysis in vivo in Doxo-treated mice (A) Timeline of 25HC treatment in Doxo-treated mice. Mice were given 4 mg/kg Doxo or PBS for 5 daily injections[A1], then injected with 25HC or vehicle for 7 consecutive days. (B) Mass of gastrocnemius muscles. Muscle weight was normalized to body weight. (C) Cdkn2a and Cryab mRNA levels in gastrocnemius (Gastroc) and soleus (Sol) muscles. RNA was collected 28–30 d after the first treatment with Doxo. mRNA levels were quantified by qRT-PCR, and normalized to actin mRNA levels. The average value of PBS-vehicle was set at 1. (D) 15-d-PGJ2 analysis in urine. Urine was collected at 24 h after the first treatment with 25HC or HbCD. p values versus PBS-Veh or Doxo-Veh are obtained using Tukey's multiple comparisons test. ∗p < 0.05, ∗∗p < 0.01, p < 0.001, and ∗∗∗∗p < 0.0001.
Male C57BL/6J mice (3–4 months old) were purchased from the Jackson Laboratory. We performed five i.p. injections with 4 mg/kg of Doxo (Tocris Bioscience, Product# 2252) for each injection over 10 days (Figure 6A). Therefore, we injected a total of 20 mg/kg of Doxo/mouse over 10 days. We used EFT-PBS (EMD Millipore, Product# TMS-012-A) as a control. To test effects of 25HC (Tocris Bioscience, Product# 5741) on Doxo-treated mice, we prepared three experimental groups (n=15 for each group): 1) PBS+HβCD vehicle (22.5%), 2) Doxo (20 mg/kg)+vehicle (22.5%), 3) Doxo (20 mg/kg)+25HC (50 mg/kg) (Figure 6A); 25HC was dissolved in 22.5% 2-hydroxypropyl-beta-cyclodextrin (HβCD) (Tocris Bioscience, Product 0708). On the Day 5 after the last Doxo/PBS injections, the mice were treated with either 25HC (50 mg/kg) or vehicle by i.p. injections for 7 consecutive days (Figure 6A). 12 hr after the first 25HC or vehicle treatments, urine was collected (Figure 6A) from each group to test for the senolysis marker 15-d-PGJ2. […] Senescence markers p16^INK4a, p21^Cip1 and CRYAB expression was analyzed on gastrocnemius (Gastroc), soleus (So), tibialis anterior (TA), visceral fat (VF), kidney (Ki), liver (Li), lung (Lu), heart (He), and skin (Sk) samples by qRT-PCR. […]

[4] = system: 15-d-PGJ2; test: 15-d-PGJ2 ELISA in urine of Doxo-treated mice given 25HC; assay type: in vivo, mouse; details: urine collected after the first treatment with 25HC 50 mg/kg i.p. (24 h per Figure 8, 12 hr per methods)
Protocol: as §1, with “Urine was collected at 24 h after the first treatment with 25HC or HbCD. p values versus PBS-Veh or Doxo-Veh are obtained using Tukey's multiple comparisons test. ∗p < 0.05, ∗∗p < 0.01, p < 0.001, and ∗∗∗∗p < 0.0001.” left out
Male C57BL/6J mice (3–4 months old) were purchased from the Jackson Laboratory. […] Senescence markers p16^INK4a, p21^Cip1 and CRYAB expression was analyzed on gastrocnemius (Gastroc), soleus (So), tibialis anterior (TA), visceral fat (VF), kidney (Ki), liver (Li), lung (Lu), heart (He), and skin (Sk) samples by qRT-PCR.
Urine was collected at 12 or 24 h after the first treatment with 25HC or vehicle and diluted 10-fold with assay buffer. The amount of 15-d-PGJ2 was measured using a 15-deoxy-Δ^12,14-PGJ2 ELISA kit according to manufactures’ protocol (Enzo Life Sciences).

C[C@H](CCCC(C)(C)O)[C@H]1CC[C@H]2[C@@H]3CC=C4C[C@@H](O)CC[C@]4(C)[C@H]3CC[C@]12C [25HC, 25-hydroxycholesterol]
CRYAB aggregation [1]: blocks CRYAB aggregation
SARS-CoV-2 replication [2]: inhibits SARS-CoV-2 replication
Cryab mRNA levels in muscle [3]: reduced
Cdkn1a mRNA in gastrocnemius and soleus ([3]; versus Doxo + vehicle): significantly decreased
15-d-PGJ2 levels in urine [4]: increased significantly
